ChEMBL document CHEMBL5634079, “Development of novel celastrol-ligustrazine hybrids as potent peroxiredoxin 1 inhibitors against lung cancer” (Eur J Med Chem, 2023)
Active and inactive are the calls of the source. No cut-off for these calls is given here.

Assays:
A549 [1] = assay: Downregulation of PRDX3 level in human A549 cells at 2 to 4 uM by Western blot analysis; type: functional, cell-based; conditions: dose 2-4 µM
A549 [2] = assay: Induction of apoptosis in human A549 cells assessed as decrease in PARP level at 2 to 4 uM by Western blot analysis; type: functional, cell-based; conditions: dose 2-4 µM
A549 [3] = assay: Induction of apoptosis in human A549 cells assessed as late apoptotic cells at 4 uM incubated for 48 hrs by Annexin V-FITC and PI staining based flow cytometric analysis (reference value: 0.73%); type: functional
A549 [4] = assay: Induction of apoptosis in human A549 cells assessed as necrotic cells at 2 uM incubated for 48 hrs by Annexin V-FITC and PI staining based flow cytometric analysis (reference value: 4.68%); type: functional
Lewis lung carcinoma = assay: Antitumor activity against mouse Lewis lung carcinoma cell line implanted in C57BL/6J mouse assessed as tumor cell agglutination at 0.5 to 1 mg/kg, ip administered every day for 19 days by H and E staining based analysis; type: functional, organism-based; conditions: dose 0.5-1 mg/kg, time 19.0 day
MDA-MB-231 = assay: Antiproliferative activity against human MDA-MB-231 cells assessed as inhibition of cell growth incubated for 48 hrs by MTT assay; type: functional, cell-based; conditions: MDA-MB-231, 48 h
A549 [5] = assay: Downregulation of PRDX1 level in human A549 cells at 2 to 4 uM by Western blot analysis; type: functional, cell-based; conditions: dose 2-4 µM
A549 [6] = assay: Induction of apoptosis in human A549 cells assessed as early apoptotic cells at 2 uM incubated for 48 hrs by Annexin V-FITC and PI staining based flow cytometric analysis (reference value: 0.76%); type: functional
A549 [7] = assay: Downregulation of PRDX2 level in human A549 cells at 2 to 4 uM by Western blot analysis; type: functional, cell-based; conditions: dose 2-4 µM
A549 [8] = assay: Downregulation of PRDX1 gene expression in human A549 cells at 2 to 4 uM by Q-PCR analysis; type: functional, cell-based; conditions: dose 2-4 µM
A549 [9] = assay: Induction of apoptosis in human A549 cells assessed as increase in cleaved PARP expression at 2 to 4 uM by Western blot analysis; type: functional, cell-based; conditions: dose 2-4 µM
A549 [10] = assay: Induction of apoptosis in human A549 cells assessed as early apoptotic cells at 4 uM incubated for 48 hrs by Annexin V-FITC and PI staining based flow cytometric analysis (reference value: 0.76%); type: functional
A549 [11] = assay: Induction of apoptosis in human A549 cells assessed as viable cells at 4 uM incubated for 48 hrs by Annexin V-FITC and PI staining based flow cytometric analysis (reference value: 93.8%); type: functional; conditions: read-out: Activity

In the case of CC1=C(OC(=O)/C=C/c2ccccc2)C(=O)C=C2C1=CC=C1[C@@]2(C)CC[C@@]2(C)[C@@H]3C[C@](C)(C(=O)NCc4nc(C)c(C)nc4C)CC[C@]3(C)CC[C@]12C, the Activity (A549 [1]) is reported as “Active”, the Activity (A549 [2]) is reported as “Active” and the Activity (A549 [3]) is reported as 33.4%. The Activity (A549 [4]) was 3.57%, the Activity (Lewis lung carcinoma) was “Active” and the IC50 (MDA-MB-231) was 2670 nM. For the same molecule, the Activity (A549 [5]) was “Active”, the Activity (A549 [6]) was 3.13% and the Activity (A549 [7]) was “Active”. For the same molecule, the Activity (A549 [8]) was “Active”, the Activity (A549 [9]) was “Active” and the Activity (A549 [10]) was 18.5%. For the same molecule, the viability at 4 µM (A549 [11]) was 45.1%.
